For assay [1], the target named is T1, chimeric REV1 CTD protein (Mus musculus, UniProt Q920Q2).
T1 construct: the mouse REV1 CTD (F1150-T1249); His10-GB1 (TEV site) (N, cleaved yes); made in house; host or cells: E. coli BL21 Star (DE3)
T1 sequence (Q920Q2 1150-1249): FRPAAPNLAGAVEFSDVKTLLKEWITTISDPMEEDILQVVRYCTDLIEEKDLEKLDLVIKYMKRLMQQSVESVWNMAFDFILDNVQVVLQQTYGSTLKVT
The assay can be described thus: Isothermal titration calorimetry. In kind it is binding. Particulars: 25° C. The procedure: Isothermal titration calorimetry measurements were carried out using a MicroCal VP-ITC instrument at 25° C., with the chimeric REV1 CTD protein (300 μM) in the syringe and compound (15 μM) in the cell. Compounds were initially dissolved in 50% MPD. Protein and compound samples were diluted in a buffer containing 50 mM HEPES pH 7.5, 50 mM KCl, 2 mM TCEP, 2% DMSO and 0.1% MPD. Microcal Origin 7 software was used to analyze the data.
For orientation: ITC needs no label: the signal is the heat of the interaction.

Assay [2] relates to REV1 CTD-REV7 interaction. The assay can be described thus: ELISA assay probing the REV1 CTD-REV7 interaction. In kind it is binding, mouse. Particulars: ratio of test compound IC50 to RE01 IC50. The procedure: The ELISA assay for probing the REV1 CTD-REV7 interaction was carried out by immobilizing 50 nM His8-tagged REV7/3 in 200 μL phosphate-buffered saline (PBS, Gibco) containing 0.2% BSA in a Ni-NTA coated 96-well plate (HisSorb, Qiagen) for 30 minutes. Unbound His8-tagged REV7/3 was removed by washing the wells four times with PBS containing 0.05% Tween-20. […] After incubation for 30 minutes, the wells were washed four times with PBS containing 0.05% Tween-20 to remove the unbound FLAG-tagged POL κ RIR-REV1 CTD. A solution of the anti-FLAG horseradish peroxidase (HRP)-conjugated antibody (Sigma-Aldrich) in PBS containing 0.2% BSA was then added to the wells. After incubating for 1 hour, the antibody was washed off four times with PBS containing 0.05% Tween-20. The 3,3′,5,5′-tetramethylbenzedine (TMB) substrate (SureBlue TMB, Seracare) was added to the wells. After incubation of 20-30 minutes, the reaction was quenched with 1 M HCl. A SpectraMax plate reader (Molecular Devices) was used to measure absorbance at 450 nm.
In general terms: In an ELISA, binding on a coated surface is turned into a signal by an enzyme label.

Assay [3] deals with A375 cells. The assay can be described thus: qRT-PCR of p21 mRNA. It is filed as cell-based, human. To be noted: cisplatin 1 μM alone. The procedure: Total RNA was isolated by using the RNeasy Mini kit (Qiagen) from cells treated with RE01 (1.5 μM), cisplatin (1 μM) and a combination of both RE01 (1.5 μM) and cisplatin (1 μM). 5 ng of RNA from each sample was mixed with 10 μl of Applied Biosystems™ PowerUp™ SYBR™ Green Master Mix (ThermoFisher), 1 μl of MultiScribe™ Reverse Transcriptase (ThermoFisher), 0.1 μl of RNaseOUT™ Recombinant Ribonuclease Inhibitor and 5.9 μl of RNase-free water, and run in a one-step qRT-PCR reaction. Each reaction was run in triplicate. Primers used were: p21 F 5′-[…]-3′ (SEQ ID NO: 9), p21 R 5-CGGCGTTTGGAGTGG TAGAAA-3′ (SEQ ID NO: 10); GAPDH F 5′-[…]-3′ (SEQ ID NO: 11), GAPDH R 5′-[…]-3′ (SEQ ID NO: 12).

Molecules are shown by their SMILES.

In the case of `CC(C)CC(=O)c1c(N2CCOCC2)[nH]c2c(Cl)ccc([N+](=O)[O-])c2c1=O` [RE07, 8-chloro-3-(3-methylbutanoyl)-2-morpholino-5-nitroquinolin-4(1H)-one], the “REV1 CTD binding” value in assay [1] was “abolished the REV1 CTD binding”. As to `CC(C)CC(=O)c1c(Nc2ccc(Cl)cc2Cl)[nH]c2c(Cl)cc([N+](=O)[O-])cc2c1=O` [RE34, 8-chloro-2-((2,4-dichlorophenyl)amino)-3-(3-methylbutanoyl)-6-nitroquinolin-4(1H)-one], the “Relative IC50 Ratio” value in assay [2] was “A (A represents a ratio of test compound IC50 to RE01 IC50 of less than 0.8)”. On to `CC(C)CC(=O)c1c(Nc2ccc(Cl)cc2Cl)[nH]c2cc([N+](=O)[O-])ccc2c1=O` [RE35, 2-((2,4-dichlorophenyl)amino)-3-(3-methylbutanoyl)-7-nitroquinolin-4(1H)-one], for which the “Relative IC50 Ratio” value in assay [2] is given as “A (A represents a ratio of test compound IC50 to RE01 IC50 of less than 0.8)”. For `Cc1ccc([N+](=O)[O-])c2c(=O)c(C(=O)CC(C)C)c(Nc3ccc(Cl)cc3Cl)[nH]c12` [RE36, 2-((2,4-dichlorophenyl)amino)-8-methyl-3-(3-methylbutanoyl)-5-nitroquinolin-4(1H)-one], the “Relative IC50 Ratio” value in assay [2] was “C (C represents a ratio of test compound IC50 to RE01 IC50 between 1.5-10)”. Same read-out and setting: with `COc1ccc([N+](=O)[O-])c2c(=O)c(C(=O)CC(C)C)c(Nc3ccc(Cl)cc3Cl)[nH]c12` [RE37, 2-((2,4-dichlorophenyl)amino)-8-methoxy-3-(3-methylbutanoyl)-5-nitroquinolin-4(1H)-one] the entry was “C (C represents a ratio of test compound IC50 to RE01 IC50 between 1.5-10)”; with `CC(C)CC(=O)c1c(Nc2ccc(Cl)cc2Cl)[nH]c2c(F)ccc([N+](=O)[O-])c2c1=O` [RE38, 2-((2,4-dichlorophenyl)amino)-8-fluoro-3-(3-methylbutanoyl)-5-nitroquinolin-4(1H)-one], “B (B represents a ratio of test compound IC50 so to RE1 IC50 between 0.8 and 1.5)”.

As for `CC(C)CC(=O)c1c(Nc2ccc(Cl)cc2Cl)[nH]c2c(Br)ccc([N+](=O)[O-])c2c1=O` [RE39, 8-bromo-2-((2,4-dichlorophenyl)amino)-3-(3-methylbutanoyl)-5-nitroquinolin-4(1H)-one], the “Relative IC50 Ratio” value in assay [2] was “B (B represents a ratio of test compound IC50 so to RE1 IC50 between 0.8 and 1.5)”. With `N.N.[Cl][Pt][Cl]` [cisplatin, cis-diammineplatinum(II) dichloride, reference compound], in assay [3], the “levels of the p21 biomarker” value is given as “elevated levels”.

For the origin of these results see patent publication US11801242B2, “Compositions and methods for adjuvant cancer therapeutics” (DUKE UNIVERSITY, priority 2018, dated 2023).
